Data set [1] relates to BZD (central). Put plainly: In vitro CEREP profiling, BZD (central) (agonist radioligand). The data set is classed as binding. Particulars: test compound 10 uM. An excerpt: (§1) Supplement media-1.zip/Safety_Panel_Profile.csv, table | column: perc_inhibition
Data set [2] deals with T1, V1a (h) (Homo sapiens, UniProt P37288).
T1 construct: purchased Eurofins Cerep (SafetyScreen44), recognised from the panel format
Briefly: In vitro CEREP profiling, V1a (h) (agonist radioligand). The class given is binding. Particulars: test compound concentration 10 uM.
Excerpt: as §1

Data set [3] in a line: Hepatic microsomal stability, MLM. The class given is in vitro ADME.
For data set [4], the target named is T2, KOR receptor (Homo sapiens, UniProt P41145).
T2 construct: purchased Eurofins Cerep (SafetyScreen44), recognised from the panel format
Put plainly: Eurofins CEREP panel, KOR. The class given is binding. The note with it: kappa (h) (KOP) (agonist radioligand); test compound concentration 10 uM.

Data set [5] deals with NaV1.5 (Homo sapiens, UniProt Q14524). Briefly: In vitro NaV1.5 cardiotoxicity. Particulars: top test concentration 30 uM. An excerpt:
Supplement media-1.zip/Cardiotoxicity.csv, table | column: ic50_rest_state; ic50_use_dep_block; perc_inhibition_rest_state; perc_inhibition_use_dep_block

Data set [6] has as its target T3, 5-HT1B (h) (Homo sapiens, UniProt P28222).
T3 construct: purchased Eurofins Cerep (SafetyScreen44), recognised from the panel format
Put plainly: In vitro CEREP profiling, 5-HT1B (h) (antagonist radioligand). The data set is classed as binding. Particulars: test compound concentration 10 uM.
Excerpt: as §1

Data set [7] is described as follows: In vitro dog liver microsomal stability. The class given is in vitro ADME. From the text:
(§2) Supplement media-1.zip/Hepatic_Microsomal_Stability.csv, table | column: clint; t_half
For orientation: Liver microsomes are vesicles of endoplasmic reticulum, rich in cytochrome P450 enzymes.

Data set [8] can be described thus: In vitro rat SD liver microsomal stability. The data set is classed as in vitro ADME.
Excerpt: as §2

Data set [9] concerns the target T4, M1 (h) (Homo sapiens, UniProt P11229).
T4 construct: purchased Eurofins Cerep (SafetyScreen44), recognised from the panel format
T4 sequence (P11229 1-460): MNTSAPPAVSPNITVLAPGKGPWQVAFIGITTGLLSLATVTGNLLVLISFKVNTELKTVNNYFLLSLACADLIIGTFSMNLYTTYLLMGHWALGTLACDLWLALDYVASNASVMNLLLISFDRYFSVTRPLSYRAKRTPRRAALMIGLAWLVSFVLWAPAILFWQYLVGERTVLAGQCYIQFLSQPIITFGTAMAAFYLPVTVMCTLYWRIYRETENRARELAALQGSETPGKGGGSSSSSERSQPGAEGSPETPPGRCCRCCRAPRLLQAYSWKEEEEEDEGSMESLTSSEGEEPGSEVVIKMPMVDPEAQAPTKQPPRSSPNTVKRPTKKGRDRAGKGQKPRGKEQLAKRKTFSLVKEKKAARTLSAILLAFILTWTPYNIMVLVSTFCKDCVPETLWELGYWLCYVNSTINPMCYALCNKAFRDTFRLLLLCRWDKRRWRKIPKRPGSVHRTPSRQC
Put plainly: In vitro CEREP profiling, M1 (h) (antagonist radioligand). The data set is classed as binding. The note with it: test compound concentration 10 uM.
Excerpt: as §1

Data set [10] relates to SARS-CoV-2. Briefly: Antiviral effect in iPSC-derived pneumocyte system. The class given is cell-based. Particulars: iPSC pneumocytes SARS-CoV-2 antiviral effect; for perc_max_measured: maximum measured response of dose series.
Data set [11] deals with iPSC pneumocytes. Put plainly: iPSC pneumocytes cytotoxicity. The note with it: for perc_max_measured: highest measured response of the dose series; for perc_min_measured: lowest measured response of the dose series. The class given is cell-based. An excerpt: Supplement media-1.zip/Cytotoxicity.csv, table | column: cc10; cc50; perc_min_measured; perc_max_measured
Data set [12] addresses T5, 5-HT transporter (h) (Homo sapiens, UniProt P31645).
T5 construct: purchased Eurofins Cerep (SafetyScreen44), recognised from the panel format
Briefly: In vitro CEREP profiling, 5-HT transporter (h) (antagonist radioligand). The data set is classed as binding. The note with it: test compound concentration 10 uM.
Excerpt: as §1

Data set [13] deals with MDR1. Put plainly: Permeability Papp (AB) MDR1/MDCKII. Particulars: dog, MDCK-MDR1, papp_a_to_b_mean, In vitro MDR1-MDCKII permeability, A to B, mean.
The target of data set [14] is SARS-CoV-2 nsp3-mac1 (Severe acute respiratory syndrome coronavirus 2, UniProt P0DTD1). Put plainly: biochemical. Particulars: IC50, nsp3-mac1 activity, Figures 1-3 and text.
Data set [15] is described as follows: in vitro. The note with it: human.
The mark [16] stands for this setting: In vitro mouse liver microsomal stability.
The mark [17] stands for this setting: In vitro mouse liver microsomal stability; no cofactor.
The mark [18] stands for this setting: NaV1.5, rest state, read-out: ic50_rest_state.
[19] abbreviates: NaV1.5, use dependent block, read-out: ic50_use_dep_block.
[20] abbreviates: In vitro mouse liver microsomal stability, no cofactor.
Setting [21] is: protocol iPSC pneumocytes cytotoxicity.

Where “and” joins values, the source holds several entries; their conditions need not be identical. Equal entries are not always repeated. Where two headings read alike, the source gives them in different places.

T1 sequence (P37288 whole entry): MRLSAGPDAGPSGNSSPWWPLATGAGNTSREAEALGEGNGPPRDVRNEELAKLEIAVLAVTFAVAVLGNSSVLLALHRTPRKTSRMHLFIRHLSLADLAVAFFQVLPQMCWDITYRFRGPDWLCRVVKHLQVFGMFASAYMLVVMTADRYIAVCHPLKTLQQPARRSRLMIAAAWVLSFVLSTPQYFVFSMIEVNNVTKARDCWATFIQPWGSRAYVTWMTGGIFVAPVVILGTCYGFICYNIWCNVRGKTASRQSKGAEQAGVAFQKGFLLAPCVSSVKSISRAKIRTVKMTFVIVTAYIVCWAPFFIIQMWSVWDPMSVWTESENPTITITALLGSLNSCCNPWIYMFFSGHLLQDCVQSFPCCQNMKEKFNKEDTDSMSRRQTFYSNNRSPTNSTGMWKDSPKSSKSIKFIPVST
T3 sequence (P28222 whole entry): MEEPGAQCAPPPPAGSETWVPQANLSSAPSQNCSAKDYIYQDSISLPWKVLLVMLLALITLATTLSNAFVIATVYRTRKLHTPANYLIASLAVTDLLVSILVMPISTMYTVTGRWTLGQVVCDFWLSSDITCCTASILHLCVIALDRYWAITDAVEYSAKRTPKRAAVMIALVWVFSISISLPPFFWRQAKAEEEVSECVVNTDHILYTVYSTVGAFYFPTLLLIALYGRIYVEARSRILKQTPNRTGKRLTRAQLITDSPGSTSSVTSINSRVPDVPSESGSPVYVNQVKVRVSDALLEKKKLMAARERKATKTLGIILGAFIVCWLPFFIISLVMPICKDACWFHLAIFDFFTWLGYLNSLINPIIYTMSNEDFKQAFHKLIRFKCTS
Sequence of NaV1.5 (Q14524 whole entry): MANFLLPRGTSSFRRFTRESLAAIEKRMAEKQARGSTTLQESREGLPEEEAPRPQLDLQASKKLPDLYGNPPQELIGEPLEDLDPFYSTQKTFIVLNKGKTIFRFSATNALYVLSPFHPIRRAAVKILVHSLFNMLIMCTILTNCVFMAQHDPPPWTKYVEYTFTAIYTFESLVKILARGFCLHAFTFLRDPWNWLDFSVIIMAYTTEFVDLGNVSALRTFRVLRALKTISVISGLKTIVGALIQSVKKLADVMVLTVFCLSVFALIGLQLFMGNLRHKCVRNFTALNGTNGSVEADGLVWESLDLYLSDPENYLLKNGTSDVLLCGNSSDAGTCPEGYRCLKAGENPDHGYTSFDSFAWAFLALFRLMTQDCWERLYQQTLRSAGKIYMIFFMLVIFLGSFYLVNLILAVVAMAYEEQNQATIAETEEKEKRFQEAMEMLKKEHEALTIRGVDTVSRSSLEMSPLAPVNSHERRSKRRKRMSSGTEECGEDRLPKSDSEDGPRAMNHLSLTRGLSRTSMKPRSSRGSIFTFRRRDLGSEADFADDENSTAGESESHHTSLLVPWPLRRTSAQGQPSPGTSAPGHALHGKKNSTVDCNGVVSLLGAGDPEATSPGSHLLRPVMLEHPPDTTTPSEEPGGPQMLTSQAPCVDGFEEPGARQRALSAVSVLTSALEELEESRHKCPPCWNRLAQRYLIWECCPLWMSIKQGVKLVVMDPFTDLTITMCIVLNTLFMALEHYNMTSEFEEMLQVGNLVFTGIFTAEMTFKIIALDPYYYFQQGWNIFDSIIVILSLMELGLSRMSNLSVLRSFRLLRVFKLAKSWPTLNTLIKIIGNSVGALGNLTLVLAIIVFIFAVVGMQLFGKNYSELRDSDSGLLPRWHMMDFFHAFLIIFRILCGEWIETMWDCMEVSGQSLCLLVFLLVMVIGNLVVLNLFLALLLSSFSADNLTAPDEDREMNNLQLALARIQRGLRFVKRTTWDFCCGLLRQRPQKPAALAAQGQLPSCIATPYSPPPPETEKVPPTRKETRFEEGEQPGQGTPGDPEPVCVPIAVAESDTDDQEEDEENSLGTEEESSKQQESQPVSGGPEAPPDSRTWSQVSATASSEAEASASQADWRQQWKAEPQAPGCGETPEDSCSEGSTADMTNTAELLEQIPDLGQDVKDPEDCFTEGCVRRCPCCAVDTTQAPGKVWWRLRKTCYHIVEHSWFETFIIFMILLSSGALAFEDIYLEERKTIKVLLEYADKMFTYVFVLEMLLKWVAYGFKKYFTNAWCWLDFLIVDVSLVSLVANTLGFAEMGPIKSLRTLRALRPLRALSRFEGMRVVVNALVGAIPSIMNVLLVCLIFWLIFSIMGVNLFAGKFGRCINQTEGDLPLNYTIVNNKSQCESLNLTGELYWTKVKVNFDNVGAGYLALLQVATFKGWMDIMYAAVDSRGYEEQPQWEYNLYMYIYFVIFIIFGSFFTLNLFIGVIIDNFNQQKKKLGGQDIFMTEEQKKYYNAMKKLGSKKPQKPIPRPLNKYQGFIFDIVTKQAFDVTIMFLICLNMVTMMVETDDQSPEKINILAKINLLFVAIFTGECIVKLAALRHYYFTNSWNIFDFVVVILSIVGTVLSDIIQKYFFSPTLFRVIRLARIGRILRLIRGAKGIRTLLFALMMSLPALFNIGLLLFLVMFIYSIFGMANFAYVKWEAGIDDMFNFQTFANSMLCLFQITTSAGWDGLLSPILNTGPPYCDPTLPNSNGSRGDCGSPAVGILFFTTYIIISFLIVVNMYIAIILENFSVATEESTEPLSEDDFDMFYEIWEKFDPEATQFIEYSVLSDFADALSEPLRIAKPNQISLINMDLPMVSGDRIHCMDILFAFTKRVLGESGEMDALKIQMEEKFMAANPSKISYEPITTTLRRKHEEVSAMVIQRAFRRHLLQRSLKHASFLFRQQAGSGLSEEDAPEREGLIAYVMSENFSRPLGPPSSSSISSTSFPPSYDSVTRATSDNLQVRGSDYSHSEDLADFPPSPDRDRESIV
T2 sequence (P41145 whole entry): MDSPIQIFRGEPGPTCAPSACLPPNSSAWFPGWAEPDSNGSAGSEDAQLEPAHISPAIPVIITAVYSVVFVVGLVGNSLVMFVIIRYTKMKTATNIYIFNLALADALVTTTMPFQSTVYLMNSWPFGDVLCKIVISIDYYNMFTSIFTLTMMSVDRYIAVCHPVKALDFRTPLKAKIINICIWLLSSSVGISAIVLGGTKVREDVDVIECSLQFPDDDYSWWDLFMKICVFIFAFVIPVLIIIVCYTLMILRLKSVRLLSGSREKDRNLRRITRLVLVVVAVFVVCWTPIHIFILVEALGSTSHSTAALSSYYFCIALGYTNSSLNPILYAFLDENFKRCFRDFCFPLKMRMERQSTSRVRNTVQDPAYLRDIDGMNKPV
T5 sequence (P31645 whole entry): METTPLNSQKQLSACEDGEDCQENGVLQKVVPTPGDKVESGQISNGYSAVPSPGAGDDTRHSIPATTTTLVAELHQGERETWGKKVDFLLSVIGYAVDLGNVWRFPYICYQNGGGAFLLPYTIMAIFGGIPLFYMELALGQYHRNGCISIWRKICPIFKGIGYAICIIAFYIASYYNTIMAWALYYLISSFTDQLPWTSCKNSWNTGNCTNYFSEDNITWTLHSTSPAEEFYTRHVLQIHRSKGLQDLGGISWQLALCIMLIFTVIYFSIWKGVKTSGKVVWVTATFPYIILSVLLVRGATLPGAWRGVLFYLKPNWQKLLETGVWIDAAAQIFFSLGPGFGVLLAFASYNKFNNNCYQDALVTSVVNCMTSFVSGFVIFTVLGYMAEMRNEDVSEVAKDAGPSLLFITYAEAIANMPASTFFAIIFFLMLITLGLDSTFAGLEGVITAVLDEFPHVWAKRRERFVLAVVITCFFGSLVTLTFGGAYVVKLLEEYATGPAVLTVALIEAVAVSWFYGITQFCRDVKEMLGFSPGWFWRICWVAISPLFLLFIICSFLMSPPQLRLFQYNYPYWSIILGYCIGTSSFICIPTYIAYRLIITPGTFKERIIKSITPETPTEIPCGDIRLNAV

Consider `CC(C)[C@@H](Nc1ncnc2[nH]c(-c3cnn(C)c3C#N)cc12)c1ccc2c(n1)OCCO2` [ASAP-0010716], for which the “perc_inhibition (% inhibition of the binding of a ligand specific for each target)” value in data set [1] is given as 8%; in [2], 20%; in data set [4], 56%; in data set [6] it was 4%; in [9], 8%. Also, the clint in [3] (setting [16]) came out at 371.0 µL/min/mg; in data set [7], 23.2 µL/min/mg; in [8], 156.0 µL/min/mg. Also, the perc_remaining in [3] (setting [16]) turned out to be 1.0%. For the same molecule, the results for the t_half in data set [3] (setting [16]), in [7] and in data set [8] were 4.5 min, 29.8 min and 4.46 min, respectively. For the same molecule, the perc_remaining_no_cofactor in data set [3] (setting [17]) was determined as 99.0%. Besides, in data set [5] (NaV1.5, rest state), the perc_inhibition_rest_state is 27.0%. In addition, the IC50 in data set [5] (setting [18]) and in [5] (setting [19]) was over 30 µM in each case. In data set [5] (NaV1.5, use dependent block), this molecule yielded a perc_inhibition_use_dep_block of 25.0%.

Take `CC(C)[C@H](Nc1ncnc2[nH]ccc12)c1ccc2c(c1)S(=O)(=O)CCC2` [ASAP-0008674]: the “perc_inhibition (% inhibition of the binding of a ligand specific for each target)” value in data set [1] is reported as 4%; in data set [2], 6%; in [4], 84%; in data set [6] it was 0%; in data set [9], 19%. For the same molecule, the clint came to 207.0 µL/min/mg in [3] (setting [16]), 14.3 µL/min/mg in [7] and 155.0 µL/min/mg in data set [8]. The perc_remaining in data set [3] (setting [16]) worked out at 3.0%. For the same molecule, the t_half in [3] (setting [16]) was found to be 8.1 min; in [7], 48.5 min; in data set [8], 4.49 min. The perc_remaining_no_cofactor in [3] (setting [20]) is listed as 104.0%. Moreover, the perc_inhibition_rest_state in data set [5] (NaV1.5, rest state) is listed as 19.0%. Besides, the IC50 in [5] (setting [18]) and in [5] (setting [19]) was over 30 µM each time. The same molecule had a perc_inhibition_use_dep_block in data set [5] (NaV1.5, use dependent block) of 29.0%.

Consider `COc1ccc([C@@H](Cc2nnn[nH]2)NC(=O)c2ncnc3[nH]ccc23)cc1` [ASAP-0008340], for which, in data set [3] (setting [16]), the perc_remaining came out at 96.0% and the t_half worked out at 4400.5 min. Moreover, the perc_remaining_no_cofactor in [3] (setting [20]) was determined as 93.0%.

With `CNCc1cc(-c2cc3c(N[C@@H](c4ccc5c(c4)S(=O)(=O)CCC5)C(C)C)ncnc3[nH]2)co1` [ASAP-0011176], the “perc_inhibition (% inhibition of the binding of a ligand specific for each target)” value in data set [1] is given as 28%; in data set [2] it was 13%; in data set [4], 57%; in data set [6], 45%; in [9], 47%. Further, the figures for the clint in data set [3] (setting [16]), in [7] and in [8] were 54.0 µL/min/mg, 20.0 µL/min/mg and 21.4 µL/min/mg, respectively. Besides, the perc_remaining in data set [3] (setting [16]) is recorded as 35.0%. The t_half in data set [3] (setting [16]) turned out to be 30.9 min; in [7] it was 34.7 min; in [8] it was 32.4 min. The perc_remaining_no_cofactor in data set [3] (setting [20]) is 101.0%. Moreover, the EC50 (commonly the concentration giving half of the maximal effect) in data set [10] turned out to be 3.34 µM. The EC90 – broadly, the point of the concentration-response curve where the effect stands at 90% – in [10] is over 50 µM. In addition, the perc_max_measured in [10] is listed as 92.989%; in data set [11] it was 97.309%. Further, the perc_min_measured in [10] (minimum measured response of dose series) is 2.106%; in data set [11] it was 86.868%. In data set [5] (NaV1.5, rest state), this molecule had a perc_inhibition_rest_state of 10.0%. The IC50 in [5] (setting [18]) and in [5] (setting [19]) was over 30 µM in each case. In data set [5] (NaV1.5, use dependent block), the perc_inhibition_use_dep_block came out at 16.0%. This molecule also yielded a CC50 in [11] of over 50 µM. Also, the cc10 in data set [11] was over 50.0 µM.

As for `C[C@H](C(=O)O)[C@@H](NC(=O)c1ncnc2[nH]ccc12)c1ccc(Br)cc1` [ASAP-0014722], the “perc_inhibition (% inhibition of the binding of a ligand specific for each target)” value in data set [1] is on record as -4%; in data set [2], 62%; in data set [4], 2%; in data set [6], 1%; in [12], 0%; in data set [9], -1%. In addition, the clint in [3] (setting [16]) is 4.0 µL/min/mg; in data set [7], under 5.0 µL/min/mg; in data set [8], under 5.0 µL/min/mg. Moreover, the perc_remaining in data set [3] (setting [16]) was 111.226%. Moreover, the values for the t_half in data set [3] (setting [16]), in [7] and in [8] were 379.672 min, over 139.0 min and over 139.0 min, respectively. Also, the perc_remaining_no_cofactor in data set [3] (setting [20]) was 100.245%. In data set [5] (NaV1.5, rest state), this molecule had a perc_inhibition_rest_state of 18.0%. Moreover, the IC50 in data set [5] (setting [18]) and in data set [5] (setting [19]) was over 30 µM in each case. In addition, the perc_inhibition_use_dep_block in data set [5] (NaV1.5, use dependent block) came to 16.0%.

Turning to `CC(C)C(Nc1ncnc2[nH]ccc12)c1ccc2c(c1)S(=O)(=O)CCC2` (centres unmarked) [ASAP-0008327], in [3] (setting [16]), the perc_remaining is listed as 10.0% and the t_half stood at 12.1 min. For the same molecule, the perc_remaining_no_cofactor in data set [3] (setting [17]) is on record as 103.0%. Also, the microsomal CLint (commonly a measure of how fast metabolising enzymes remove a compound, apart from limits set by blood flow) in [3] (mouse, liver microsomes, In vitro mouse liver microsomal stability) was found to be 138 µL/min/mg. Moreover, the EC50 in [10] (Severe acute respiratory syndrome coronavirus 2, iPSC) is over 50 µM. In addition, the EC90 in data set [10] (Severe acute respiratory syndrome coronavirus 2) was over 50 µM. Besides, in data set [10], the midpoint of the response, the EC50, lay at 29.9 µM; the perc_max_measured is 138.005% and 187.741%. Also, in [13], the Papp A→B (as a rule, the apparent permeability from the apical to the basolateral side of a cell layer) stood at 3.3 ×10⁻⁶ cm/s. For the same molecule, in data set [14], the IC50 is 0.14 µM. The CC50 in data set [15] is over 50 µM. For the same molecule, in [11] (setting [21]), the cc10 is over 50.0 µM; the perc_max_measured is 97.729% and 94.012%; the perc_min_measured is 81.556% and 88.355%.

For the molecule `CC(C)[C@H](Nc1ncnc2[nH]c(-c3cnn(C)c3C#N)cc12)c1ccc2c(n1)OCCO2` [ASAP-0010715], the “perc_inhibition (% inhibition of the binding of a ligand specific for each target)” value is -2% in data set [1]; 27% in data set [2]; 31% in data set [4]; -11% in [6]; 7% in [9]. Further, the perc_inhibition_rest_state in data set [5] (NaV1.5, rest state) was found to be 33.0%. The IC50 in data set [5] (setting [18]) and in [5] (setting [19]) was over 30 µM throughout. Further, in [5] (NaV1.5, use dependent block), the perc_inhibition_use_dep_block is listed as 35.0%. Further, the clint was 23.7 µL/min/mg in [7] and 106.0 µL/min/mg in data set [8]. Further, the values for the t_half in data set [7] and in [8] were 29.2 min and 6.54 min, respectively.

Source of the values: publication doi:10.1101/2024.08.19.608619, “Discovery of potent SARS-CoV-2 nsp3 macrodomain inhibitors uncovers lack of translation to cellular antiviral response” (bioRxiv, 2024).
